Our source for the target mRNA inhibition values is the OligoGym collection.

After the bases stand the sugars from the 5' end (letter, count) and the backbone: PS all phosphorothioate, else s phosphorothioate and o phosphodiester by linkage. Methylation of C is not given here. e = 2'-O-(2-methoxyethyl) (MOE); l = locked nucleic acid (LNA); k = constrained ethyl (cEt); d = 2'-deoxy (DNA)

Data set [1] has as its target ANGPTL2. Particulars: ASO.
The target in data set [2] is KRAS. Particulars: ASO.

Consider “AACCATTTTGAGATTCCCC (sugars l1 d16 l2, PS)”, for which the target mRNA inhibition turned out to be 28.5% in data set [1] (5 µM) and 17.6% in data set [1] (25 µM). For “AACCCCAGAGGATATGT (sugars l1 d13 l3, PS)”, in that order: 49.3% and 58.9%. For “AAGTTGATAGTTTATCTCC (sugars l3 d14 l2, PS)”, the target mRNA inhibition in data set [1] (5 µM) came out at 76.3%; in data set [1] (25 µM) it was 83.8%. For “AAGTTGATAGTTTATCTCCT (sugars l2 d16 l2, PS)”, in that order: 60.9% and 72%. On to “AATTACTCCACACTTTCA (sugars l3 d12 l3, PS)”, for which the figures for the target mRNA inhibition in data set [1] (5 µM) and in data set [1] (25 µM) were 55.7% and 61.6%, respectively. For the sequence ACAACTCACATTCATAG (sugars l4 d9 l4, PS), the target mRNA inhibition in data set [1] (5 µM) was found to be 49%; in data set [1] (25 µM), 54.7%. For the sequence “ACAGAGACTAGGCATTT (sugars l3 d10 l4, PS)”, the target mRNA inhibition stood at 74.1% in data set [1] (5 µM) and 83.9% in data set [1] (25 µM). For “ACATAATGTTTCATGCT (sugars l4 d11 l2, PS)”, in that order: 46% and 45.8%. For the sequence “ACTGGTGAGGAGTTGTT (sugars l2 d13 l2, PS)”, the target mRNA inhibition stood at 26% in data set [1] (5 µM) and 25.8% in data set [1] (25 µM).

With “AGATGAATATAGTTCTC (sugars l4 d10 l3, PS)”, the target mRNA inhibition was found to be 55.3% in data set [1] (5 µM) and 65.9% in data set [1] (25 µM). For “AGCTCAGTGGTGAGATGG (sugars l1 d15 l2, PS)”, in that order: 54.1% and 54.8%. For the sequence “AGTGAGAGGAAGTCAGGG (sugars l1 d15 l2, PS)”, the target mRNA inhibition in data set [1] (5 µM) was 39.6%; in data set [1] (25 µM), 46.3%. For the sequence “AGTGTTTAAGAAGAAATG (sugars l4 d10 l4, PS)”, the target mRNA inhibition in data set [1] (5 µM) was 41.7%; in data set [1] (25 µM), 54.8%. For “AGTTACTCTTAGCCAAA (sugars l3 d10 l4, PS)”, in that order: 82.6% and 84.8%.

For the sequence ATAACGCCCACTGAGA (sugars l1 d11 l4, PS), the figures for the target mRNA inhibition in data set [1] (5 µM) and in data set [1] (25 µM) were 24.4% and 39.7%, respectively. Consider ATAGCAGGGAGTGACC (sugars l2 d12 l2, PS), for which the target mRNA inhibition in data set [1] (5 µM) was 8.4%; in data set [1] (25 µM), 26.5%. For “ATCTGGTTGATGATGCGG (sugars l2 d14 l2, PS)”, in that order: 75.2% and 82.3%. As to “ATCTTATTTTGTTTAACA (sugars l4 d10 l4, PS)”, the target mRNA inhibition in data set [1] (5 µM) stood at 60.2%; in data set [1] (25 µM), 51.7%.

On to “GTGTTTATGCAATGTT (sugars kkkddddddddkekek, PS)”, for which the target mRNA inhibition in data set [2] (A431, 0.185 µM) turned out to be 33%; in data set [2] (A431, 0.556 µM) it was 55%; in data set [2] (A431, 1.667 µM) it was 69%; in data set [2] (A431, 2 µM), 66%; in data set [2] (A431, 5 µM) it was 78%.

In turn, GTTTATGCAATGTTAA (sugars k3 d10 k3, PS) came in with a target mRNA inhibition in data set [2] (A431, 2 µM) of 55%.

Regarding TAAAAAAAAAATTAAT (sugars k3 d10 k3, PS), the target mRNA inhibition in data set [2] (A431, 2 µM) is 1%.

As to TAACCAGTGTTAAGAG (sugars k3 d10 k3, PS), in data set [2] (A431, 2 µM), the target mRNA inhibition stood at 40%. As for TAATAATCCCCATTTC (sugars k3 d10 k3, PS), in data set [2] (A431, 2 µM), the target mRNA inhibition came out at 9%. In data set [2] (A431, 2 µM), TAATCTTTTAATGTCA (sugars k3 d10 k3, PS) gave a target mRNA inhibition of 7%. For the sequence TAATGGTGAATATCTT (sugars k3 d10 k3, PS), the target mRNA inhibition in data set [2] (A431, 2 µM) was 11%. TACTAGTATGCCTTAA (sugars k3 d10 k3, PS) returned a target mRNA inhibition in data set [2] (A431, 2 µM) of 16%. In turn, TACTTTTTGACAAATG (sugars k3 d10 k3, PS) gave a target mRNA inhibition in data set [2] (A431, 2 µM) of 37%.

Regarding TAGGGCATTTCTGATG (sugars k3 d10 k3, PS), the target mRNA inhibition in data set [2] (A431, 2 µM) amounted to 20%. The same measure, in the same setting: the figure for TAGTGATTAGGTCAAA (sugars k3 d10 k3, PS) is 21%. Take “TAGTGATTAGGTCAAA (sugars kkdddddddddkekek, PS)”: in data set [2] (A431, 2 µM), the target mRNA inhibition was 51%. For the sequence “TAGTGATTAGGTCAAA (sugars kkddddddddkekekk, PS)”, the target mRNA inhibition in data set [2] (A431, 2 µM) came to 42%. The same measure, in the same setting: the figure for TATAATGGTGAATATC (sugars k3 d10 k3, PS) is 7%; for TATTAGGAGTCTTTAT (sugars k3 d10 k3, PS) it is 13%. Still for that read-out and setting: the figure for TCAACTGCATGCACCA (sugars k3 d10 k3, PS) is 52%; for TCACTTCATTGTTTAA (sugars k3 d10 k3, PS) it is 32%. On the same count and under the same terms, the figure for TCATTACTTTTTGACA (sugars k3 d10 k3, PS) is 4%. Sequence “TCCAGTGATACTTTCA (sugars k3 d9 k3 e1, PS)” had a target mRNA inhibition in data set [2] (A431, 2 µM) of 47%. In turn, TCCAGTGATACTTTCA (sugars k3 d10 k3, PS) displayed a target mRNA inhibition in data set [2] (A431, 2 µM) of 51%. In the case of “TCCATTTATGTGACTA (sugars k3 d9 k3 e1, PS)”, the target mRNA inhibition in data set [2] (A431, 2 µM) was 23%. “TCCATTTATGTGACTA (sugars kdddddddddkekeke, PS)”: in data set [2] (A431, 2 µM), the target mRNA inhibition amounted to 15%. The same measure, in the same setting: then “TCCATTTATGTGACTA (sugars kkddddddddddkeke, PS)”, with 22%; and “TCCATTTATGTGACTA (sugars kkddddddddkekekk, PS)”, with 29%.
